What all share (assay type): cell-based
The test system of one assay is A431 cells. The assay can be described thus: Cellular proliferation (Alamar Blue) assay, A431. Conditions: Homo sapiens, A-431; A431 cells, 72 hr, Alamar Blue; read-out: A431 IC50.
In assay [1] the target is EGFR (A767_dupASV) expressing Ba/F3 stable cell line (Homo sapiens, UniProt P00533, DUP767-769, cells depend on it). Put plainly: Cellular proliferation (Alamar Blue) assay, EGFR A767_dupASV Ba/F3. The note with it: 72 hr, read-out: A767 IC50. An outline of the steps:
(§1)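 Each stable Ba/F3 line, cultured in RPMI with 10% FBS at 15,000 cells per well, received a threefold compound series (final top 10 μM, bottom 0.0005 μM) for 72 hr at 37 degree Celsius, then Alamar Blue for 3 h.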
(In general: The colour change of resazurin is a common sign of viable cells or microbes.)

Assay [2] addresses EGFR(D770_N771insSVD) expressing Ba/F3 stable cell line (Homo sapiens, UniProt P00533, DUP768-770, cells depend on it). Put plainly: Cellular proliferation (Alamar Blue) assay, EGFR D770_N771insSVD Ba/F3. Conditions: 72 hr, read-out: D770 IC50. A digest of the protocol:
as §1

A value given as a limit tells only on which side of the number the result lay.

Chain of EGFR(D770_N771insSVD) expressing Ba/F3 stable cell line (P00533 with tags, fused parts or gaps DUP768-770): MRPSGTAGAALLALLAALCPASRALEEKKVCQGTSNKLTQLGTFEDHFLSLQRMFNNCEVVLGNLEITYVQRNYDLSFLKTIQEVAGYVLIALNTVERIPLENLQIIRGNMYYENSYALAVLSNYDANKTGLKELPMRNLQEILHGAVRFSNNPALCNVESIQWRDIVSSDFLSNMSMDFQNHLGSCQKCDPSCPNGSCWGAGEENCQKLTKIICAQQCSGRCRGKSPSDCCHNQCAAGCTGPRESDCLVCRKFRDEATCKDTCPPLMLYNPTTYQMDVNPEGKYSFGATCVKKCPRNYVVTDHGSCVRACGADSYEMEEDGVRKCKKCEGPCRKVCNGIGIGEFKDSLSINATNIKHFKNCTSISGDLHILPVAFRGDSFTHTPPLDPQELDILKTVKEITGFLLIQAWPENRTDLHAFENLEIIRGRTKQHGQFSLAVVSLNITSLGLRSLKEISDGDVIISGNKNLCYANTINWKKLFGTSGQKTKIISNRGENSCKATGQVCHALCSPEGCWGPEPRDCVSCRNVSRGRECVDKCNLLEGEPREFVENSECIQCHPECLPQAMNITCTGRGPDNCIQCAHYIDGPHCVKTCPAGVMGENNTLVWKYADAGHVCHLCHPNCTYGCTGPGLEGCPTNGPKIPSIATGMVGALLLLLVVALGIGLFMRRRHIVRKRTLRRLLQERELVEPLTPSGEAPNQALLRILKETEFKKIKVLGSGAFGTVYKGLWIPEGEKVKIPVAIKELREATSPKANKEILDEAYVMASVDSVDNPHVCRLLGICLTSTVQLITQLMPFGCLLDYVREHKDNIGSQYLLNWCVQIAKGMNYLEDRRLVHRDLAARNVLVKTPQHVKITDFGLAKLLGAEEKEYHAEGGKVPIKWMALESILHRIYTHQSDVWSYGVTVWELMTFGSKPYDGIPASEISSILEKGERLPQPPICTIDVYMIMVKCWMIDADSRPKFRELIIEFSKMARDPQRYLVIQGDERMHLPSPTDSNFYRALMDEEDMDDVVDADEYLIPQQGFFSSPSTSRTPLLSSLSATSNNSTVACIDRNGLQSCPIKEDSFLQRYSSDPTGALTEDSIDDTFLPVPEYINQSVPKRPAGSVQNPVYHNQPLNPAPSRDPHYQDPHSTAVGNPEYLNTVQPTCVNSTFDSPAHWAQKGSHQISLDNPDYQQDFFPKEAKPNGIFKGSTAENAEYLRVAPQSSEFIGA
Chain of EGFR (A767_dupASV) expressing Ba/F3 stable cell line (P00533 with tags, fused parts or gaps DUP767-769): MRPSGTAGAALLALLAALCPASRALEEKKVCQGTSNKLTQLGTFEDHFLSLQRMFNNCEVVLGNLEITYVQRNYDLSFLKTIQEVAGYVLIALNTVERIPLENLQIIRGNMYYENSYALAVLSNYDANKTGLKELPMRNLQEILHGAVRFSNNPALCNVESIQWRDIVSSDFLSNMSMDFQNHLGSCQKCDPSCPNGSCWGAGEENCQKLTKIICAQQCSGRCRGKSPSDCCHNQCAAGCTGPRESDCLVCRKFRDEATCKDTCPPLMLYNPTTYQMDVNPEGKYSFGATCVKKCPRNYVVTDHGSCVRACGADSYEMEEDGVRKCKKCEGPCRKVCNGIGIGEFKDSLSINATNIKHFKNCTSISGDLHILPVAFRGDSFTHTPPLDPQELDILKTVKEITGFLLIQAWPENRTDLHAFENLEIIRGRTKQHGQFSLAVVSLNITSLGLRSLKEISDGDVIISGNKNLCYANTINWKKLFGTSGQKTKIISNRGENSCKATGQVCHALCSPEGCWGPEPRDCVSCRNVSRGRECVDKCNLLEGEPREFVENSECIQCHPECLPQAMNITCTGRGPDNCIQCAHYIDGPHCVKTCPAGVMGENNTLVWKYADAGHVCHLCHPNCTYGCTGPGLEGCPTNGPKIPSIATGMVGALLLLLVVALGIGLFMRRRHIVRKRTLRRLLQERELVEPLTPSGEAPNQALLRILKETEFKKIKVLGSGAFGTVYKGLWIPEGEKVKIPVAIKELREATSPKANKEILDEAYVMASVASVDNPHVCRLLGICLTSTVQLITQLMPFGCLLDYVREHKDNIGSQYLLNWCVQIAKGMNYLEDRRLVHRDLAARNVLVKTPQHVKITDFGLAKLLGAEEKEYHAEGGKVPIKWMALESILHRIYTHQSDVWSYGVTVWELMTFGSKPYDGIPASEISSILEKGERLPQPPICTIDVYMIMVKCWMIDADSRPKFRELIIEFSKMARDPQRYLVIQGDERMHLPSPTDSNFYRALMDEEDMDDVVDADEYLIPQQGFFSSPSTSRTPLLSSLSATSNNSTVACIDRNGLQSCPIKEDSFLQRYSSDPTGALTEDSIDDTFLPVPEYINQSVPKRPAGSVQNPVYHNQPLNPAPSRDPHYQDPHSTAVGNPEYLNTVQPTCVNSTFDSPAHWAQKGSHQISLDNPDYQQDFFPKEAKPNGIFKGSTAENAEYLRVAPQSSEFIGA

As a reminder, the IC50 is the midpoint of a concentration-inhibition curve. As for `C=CC(=O)Nc1ccc(F)c(Nc2nc(Nc3cc(C)sn3)ncc2-c2ccc(C(F)(F)F)cc2)c1` [Compound 212, N-(4-fluoro-3-((2-((5-methylisothiazol-3-yl)amino)-5-(4-(trifluoromethyl)phenyl)pyrimidin-4-yl)amino)phenyl)acrylamide], the half-maximal inhibitory concentration (IC50) in the assay with A431 cells was over 10000 nM. The results for the GI50 in assay [1] and in assay [2] were 1570 nM and 884 nM, respectively.
The like results for `C=CC(=O)Nc1ccc(F)c(Nc2nc(Nc3nc(C)cs3)ncc2-c2ccc(C(F)(F)F)cc2)c1` [Compound 213, N-(4-fluoro-3-((2-((4-methylthiazol-2-yl)amino)-5-(4-(trifluoromethyl)phenyl)pyrimidin-4-yl)amino)phenyl)acrylamide] were, in that order, 1820 nM, 3680 nM and 1290 nM.
The like results for `C=CC(=O)Nc1ccc(F)c(Nc2nc(Nc3cn(C)cn3)ncc2-c2ccc(C(F)(F)F)cc2)c1` [Compound 214, N-(4-fluoro-3-((2-((1-methyl-1H-imidazol-4-yl)amino)-5-(4-(trifluoromethyl)phenyl)pyrimidin-4-yl)amino)phenyl)acrylamide] were, in that order, over 10000 nM, 543 nM and 308 nM.
On the same counts, the results for `C=CC(=O)Nc1ccc(F)c(Nc2nc(Nc3nccs3)ncc2-c2ccc(C(F)(F)F)cc2)c1` [Compound 215, N-(4-fluoro-3-((2-(thiazol-2-ylamino)-5-(4-(trifluoromethyl)phenyl)pyrimidin-4-yl)amino)phenyl)acrylamide] are 2270 nM, over 10000 nM and 991 nM.
In the case of `C=CC(=O)Nc1ccc(F)c(Nc2nc(Nc3csc(C)c3)ncc2-c2ccc(C(F)(F)F)cc2)c1` [Compound 217, N-(4-fluoro-3-((2-((5-methylthiophen-3-yl)amino)-5-(4-(trifluoromethyl)phenyl)pyrimidin-4-yl)amino)phenyl)acrylamide], in the assay on A431 cells, the concentration for half-maximal inhibition (IC50) is over 10000 nM. The GI50 in assay [1] came to 1130 nM; in assay [2] it was 916 nM.
Consider `C=CC(=O)Nc1ccc(F)c(Nc2nc(Nc3cccc(CN(C)C)c3)ncc2-c2ccc(C(F)(F)F)cc2)c1` [Compound 218, N-(3-((2-((3-((dimethylamino)methyl)phenyl)amino)-5-(4-(trifluoromethyl)phenyl)pyrimidin-4-yl)amino)-4-fluorophenyl)acrylamide], for which the IC50 with A431 cells was 1580 nM. Besides, the GI50 in assay [1] turned out to be 8470 nM; in assay [2] it was 1690 nM.
Turning to `C=CC(=O)Nc1ccc(F)c(Nc2nc(Nc3cnn(C4CCOCC4)c3)ncc2-c2ccc(C(F)(F)F)cc2)c1` [Compound 220, N-(4-fluoro-3-((2-((1-(tetrahydro-2H-pyran-4-yl)-1H-pyrazol-4-yl)amino)-5-(4-(trifluoromethyl)phenyl)pyrimidin-4-yl)amino)phenyl)acrylamide], in the assay with A431 cells, the IC50 was 133 nM. Moreover, the values for the GI50 in assay [1] and in assay [2] were 211 nM and 110 nM, respectively.
The like results for `C=CC(=O)Nc1ccc(F)c(Nc2nc(Nc3cnn(C)c3)ncc2N2CCOCC2)c1` [Compound 222, N-(4-fluoro-3-((2-((1-methyl-1H-pyrazol-4-yl)amino)-5-morpholinopyrimidin-4-yl)amino)phenyl)acrylamide] were, in that order, 8150 nM, over 10000 nM and over 10000 nM.
The like results for `C=CC(=O)Nc1cccc(Oc2nc(Nc3cnn(C)c3)ncc2N2CCN(C)CC2)c1` [Compound 223, N-(3-((2-((1-methyl-1H-pyrazol-4-yl)amino)-5-(4-methylpiperazin-1-yl)pyrimidin-4-yl)oxy)phenyl)acrylamide] were, in that order, 3920 nM, 9700 nM and 9030 nM.
Take `C=CC(=O)Nc1cccc(Nc2nc(Nc3cnn(C)c3)nc(NC)c2-c2ccc(C(F)(F)F)cc2)c1` [Compound 224, N-[3-({2-[(1-methyl-1H-pyrazol-4-yl)amino]-6-(methylamino)-5-[4-(trifluoromethyl)phenyl]pyrimidin-4-yl}amino)phenyl] prop-2-enamide]: the IC50 in the assay on A431 cells is over 10000 nM. Further, the GI50 in assay [1] and in assay [2] was over 10000 nM throughout.
As for `C=CC(=O)Nc1ccc(F)c(Nc2nc(Nc3cnoc3)ncc2-c2ccc(C(F)(F)F)cc2)c1` [Compound 225, N-[4-fluoro-3-({2-[(1,2-oxazol-4-yl)amino]-5-[4-(trifluoromethyl)phenyl]pyrimidin-4-yl}amino)phenyl]prop-2-enamide], the IC50 in the assay with A431 cells was 637 nM. Also, the GI50 in assay [1] was determined as 2690 nM; in assay [2] it was 1240 nM.
On the same counts, the results for `C=CC(=O)Nc1ccc(F)c(Nc2nc(Nc3cnn(C)c3)ncc2C2=CCN(C)C2)c1` [Compound 226, N-[4-fluoro-3-({2-[(1-methyl-1H-pyrazol-4-yl)amino]-5-(1-methyl-2,5-dihydro-1H-pyrrol-3-yl)pyrimidin-4-yl}amino)phenyl]prop-2-enamide] are 1780 nM, 1610 nM and 793 nM.
On the same counts, the results for `C=CC(=O)Nc1ccc(F)c(Nc2nc(Nc3cnn(C)c3)ncc2C2CCN(C)C2)c1` (stereo not drawn) [Compound 227, N-[4-fluoro-3-({2-[(1-methyl-1H-pyrazol-4-yl)amino]-5-(1-methylpyrrolidin-3-yl)pyrimidin-4-yl}amino)phenyl]prop-2-enamide] are 6060 nM, 7090 nM and over 10000 nM.
With `C=CC(=O)Nc1cccc(N(C)c2nc(Nc3cnn(C)c3)ncc2-c2ccc(C(F)(F)F)cc2)c1` [Compound 229, N-(3-(methyl(2-((1-methyl-1H-pyrazol-4-yl)amino)-5-(4-(trifluoromethyl)phenyl)pyrimidin-4-yl)amino)phenyl)acrylamide], the IC50 in the assay on A431 cells came out at 222 nM. The GI50 was 426 nM in assay [1] and 318 nM in assay [2].
The like results for `C=CC(=O)Nc1ccc(F)c(Nc2nc(Nc3cnn(C)c3)nc3ccc(C(F)(F)F)cc23)c1` [Compound 231, N-(4-fluoro-3-((2-((1-methyl-1H-pyrazol-4-yl)amino)-6-(trifluoromethyl)quinazolin-4-yl)amino)phenyl)acrylamide] were, in that order, 4210 nM, 3900 nM and 8550 nM.
The like results for `C=CC(=O)Nc1ccc(F)c(Nc2nc(Nc3cccnc3)ncc2-c2ccc(C(F)(F)F)cc2)c1` [Compound 232, N-(4-fluoro-3-((2-(pyridin-3-ylamino)-5-(4-(trifluoromethyl)phenyl)pyrimidin-4-yl)amino)phenyl)acrylamide] were, in that order, 539 nM, 1130 nM and 724 nM.
On the same counts, the results for `C=CC(=O)Nc1cccc(Oc2nc(Nc3ccc(CN(C)C)cc3)ncc2-c2ccc(C(F)(F)F)cc2)c1` [Compound 234, N-(3-((2-((4-((dimethylamino)methyl)phenyl)amino)-5-(4-(trifluoromethyl)phenyl)pyrimidin-4-yl)oxy)phenyl)acrylamide] are 1130 nM, 948 nM and 383 nM.
Turning to `C=CC(=O)Nc1cccc(Oc2nc(Nc3cnn(CCN(C)C)c3)ncc2-c2ccc(C(F)(F)F)cc2)c1` [Compound 235, N-(3-((2-((1-(2-(dimethylamino)ethyl)-1H-pyrazol-4-yl)amino)-5-(4-(trifluoromethyl)phenyl)pyrimidin-4-yl)oxy)phenyl)acrylamide], the IC50 in the assay with A431 cells is 1070 nM. Besides, the results for the GI50 in assay [1] and in assay [2] were 980 nM and 619 nM, respectively.
The like results for `C=CC(=O)Nc1cccc(Oc2nc(NCCN(C)C)ncc2-c2ccc(C(F)(F)F)cc2)c1` [Compound 236, N-(3-((2-((2-(dimethylamino)ethyl)amino)-5-(4-(trifluoromethyl)phenyl)pyrimidin-4-yl)oxy)phenyl)acrylamide] were, in that order, over 10000 nM, over 10000 nM and over 10000 nM.
The like results for `C=C=CC(=O)Nc1ccc(F)c(Nc2nc(Nc3cnn(C)c3)ncc2-c2ccc(C(F)(F)F)cc2)c1` [Compound 251, N-(4-fluoro-3-((2-((1-methyl-1H-pyrazol-4-yl)amino)-5-(4-(trifluoromethyl)phenyl)pyrimidin-4-yl)amino)phenyl)buta-2,3-dienamide] were, in that order, 9770 nM, 9880 nM and 10000 nM.
On the same counts, the results for `Cn1cc(Nc2ncc(-c3ccc(C(F)(F)F)cc3)c(Nc3cc(N)ccc3F)n2)cn1` [Compound 257, N^4-(5-amino-2-fluorophenyl)-N^2-(1-methyl-1H-pyrazol-4-yl)-5-(4-(trifluoromethyl)phenyl)pyrimidine-2,4-diamine] are over 10000 nM, over 10000 nM and over 10000 nM.
`Cn1cc(Nc2ncc(-c3ccc(CC(F)(F)F)cc3)c(Nc3cc(NC(=O)/C=C/CF)ccc3F)n2)cn1` [Compound 303, (E)-4-fluoro-N-(4-fluoro-3-((2-((1-methyl-1H-pyrazol-4-yl)amino)-5-(4-(2,2,2-trifluoroethyl)phenyl)pyrimidin-4-yl)amino)phenyl)but-2-enamide]: in the assay with A431 cells, the IC50 is 20 nM. Besides, the figures for the GI50 in assay [1] and in assay [2] were 248 nM and 111 nM, respectively.
The like results for `CN(C)C/C=C/C(=O)Nc1ccc(F)c(Nc2nc(Nc3cnn(C)c3)ncc2-c2ccc(Br)cc2)c1` [Compound 304, (E)-N-(3-((5-(4-bromophenyl)-2-((1-methyl-1H-pyrazol-4-yl)amino)pyrimidin-4-yl)amino)-4-fluorophenyl)-4-(dimethylamino)but-2-enamide] were, in that order, 790 nM, 969 nM and 1520 nM.

These data come from patent publication US12686673B2 (Blueprint Medicines Corporation, priority 2020, dated 2026).
